Results reported in ChEMBL document CHEMBL4627306, “Novel cilengitide-based cyclic RGD peptides as αvβ3 integrin inhibitors” (Bioorg Med Chem Lett, 2020).
The source made the active and inactive calls. The rule behind the calls is not given here.

Legend:
[1] = molecular target: Integrin alpha-IIb/beta-3 (Homo sapiens, UniProt P05106+P08514); test: Inhibition of fibrinogen binding to human platelet integrin alpha2b beta3 by ELISA based solid phase binding assay
[2] = molecular target: Integrin alpha-V/beta-5 (Homo sapiens, UniProt P06756+P18084); test: Inhibition of vitronectin binding to recombinant human integrin alphaV (Phe31 to Val992 residues) beta5 (Gly24 to Asn719 residues) expressed in CHO cells by ELISA based solid phase binding assay; assay type: cell-based
[3] = system: HUVEC; test: Inhibition of tube formation in HUVEC up to 30 uM after 24 hrs […]; assay type: functional, cell-based; details: Homo sapiens
[4] = molecular target: Integrin alpha-5/beta-1 (Homo sapiens, UniProt P05556+P08648); test: Inhibition of fibronectin binding to recombinant human integrin alpha5 (Phe42 to Tyr995 residues) beta1 (Gln21 to Asp728 residues) expressed in CHO cells by ELISA based solid phase binding assay; assay type: cell-based
[5] = molecular target: Integrin alpha-V/beta-3 (Homo sapiens, UniProt P05106+P06756); test: Inhibition of vitronectin binding to recombinant human integrin alphaV (Phe31 to Val992 residues) beta3 (Gly27 to Asp718 residues) expressed in CHO cells by ELISA based solid phase binding assay; assay type: cell-based
[6] = molecular target: Integrin alpha-V/beta-6 (Homo sapiens, UniProt P06756+P18564); test: Inhibition of latency-associated peptide/TGF-beta binding to recombinant human integrin alphaV (Phe31 to Val992 residues) beta6 (Gly22 to Asn707 residues) expressed in CHO cells by ELISA based solid phase binding assay; assay type: cell-based
[7] = system: HUVEC; test: Antiproliferative activity against HUVEC assessed as effect on cell viability up to 30 uM after 24 hrs by trypan blue assay; assay type: functional, cell-based; details: Homo sapiens
[8] = molecular target: Integrin alpha-V/beta-8 (Homo sapiens, UniProt P06756+P26012); test: Inhibition of latency-associated peptide/TGF-beta binding to recombinant human integrin alphaV (Phe31 to Val992 residues) beta8 (Glu43 to Arg684 residues) expressed in CHO cells by ELISA based solid phase binding assay; assay type: cell-based

IC50 [1]	IC50 [2]	IC50 [4]	IC50 [5]	IC50 [6]	IC50 [8]	SMILES	inhibition [3]	Activity [7]
4860 nM	4930 nM	921 nM	72 nM	709 nM	6880 nM	COc1c2cccc1C(=O)N[C@@H](CCCNC(=N)N)C(=O)NCC(=O)N[C@@H](CC(=O)O)C(=O)N[C@H](Cc1ccccc1)C(=O)N2	inactive	inactive
657 nM	303 nM	623 nM	9.9 nM	1970 nM	3950 nM	N=C(N)NCCC[C@@H]1NC(=O)CC2(CCCCC2)CNC(=O)[C@@H](Cc2ccccc2)NC(=O)[C@H](CC(=O)O)NC(=O)CNC1=O	inactive	inactive
> 10000 nM	63 nM	87.8 nM	3.3 nM	608 nM	1500 nM	N=C(N)NCCC[C@@H]1NC(=O)C2(CCCCC2)NC(=O)[C@@H](Cc2ccccc2)NC(=O)[C@H](CC(=O)O)NC(=O)CNC1=O	inactive	inactive
> 10000 nM	50 nM	141 nM	5.5 nM	378 nM	806 nM	CC1(C)NC(=O)[C@@H](Cc2ccccc2)NC(=O)[C@H](CC(=O)O)NC(=O)CNC(=O)[C@H](CCCNC(=N)N)NC1=O	inactive	inactive
> 10000 nM	66 nM	1080 nM	11 nM	178 nM	319 nM	C[Si]1(C)C[C@@H]2C(=O)N[C@@H](CCCNC(=N)N)C(=O)NCC(=O)NC(CC(=O)O)C(=O)NC(Cc3ccccc3)C(=O)N2C1 (single isomer, unassigned)	inactive	inactive
